Series [1] deals with CCL-1 cell line. The series is described as follows: Live-cell imaging with Hoechst for apoptosis detection. It is filed as cell-based. Particulars: low MIC doses. The procedure: Cell suspension was seeded in the same manner as for MTT, but 50 µL per well in 96-well clear bottom plates. […] For the hypertonic buffer, the exposure time was 2 h, and the cells were plated at twice the concentration as for the MTT and cytopathic tests in order to comply with the kit protocol.
At least two wells were seeded as replicates, and at least two photographs were taken for all samples and treatments, stained with dyes or not.

In series [2] the test system is Enterococcus faecalis. The series is described as follows: MIC and MBC evaluation (broth microdilution, agar plate assay). It counts as cell-based. The procedure: (§1) The MIC and MBC assessment on the pathogenic bacteria and the candidate probiotic lactic acid bacteria was carried out by the broth microdilution assay (BMD) and the agar plate assay, respectively, as described in [4]. The metabolic (dehydrogenase) activity of the lactic acid bacteria was assessed as described in [4].
(§2) P. aeruginosa PAO1 ATCC 15692 was purchased from the American Type Cell Culture Collection (ATCC, Manassas, VA, USA). S. mutans DSM 20523 was bought from the German Collection of Microorganisms and Cell Cultures (DSMZ GmbH, Braunschweig, Germany). All other bacteria and strains were purchased as described in [4].

The test system of series [3] is Streptococcus pyogenes. Described as above. It counts as cell-based. As for the experimental part:
as §1, §2

Series [4] deals with Staphylococcus aureus. The description is as above. It is filed as cell-based. The procedure: as §1, §2
For series [5], the system named is Streptococcus mutans. The series is described as above. It is filed as cell-based. As for the experimental part:
as §1, §2

Series [6] has as its system S. aureus. In words: Time kill assay. It counts as cell-based, Staphylococcus aureus. As for the experimental part: A time kill assay was performed according to the modified protocol of Sendi and Ruppen, 2015 [137]. […] From these dilutions, 25 µL was seeded in brain heart infusion agar in a well of a 12-well plate. An untreated control was plated in the same way. Then, the bacterial suspension (treated and untreated) was placed in an incubator (MLW Kombinat, Leipzig, Germany) at 37 °C. Again, 25 µL of it was taken for seeding after 1, 2, 3, 4, 6, and 24 h, which equals a total of 7 time points. After 16–24 h of incubation, the colonies in the seeded plates from all dilutions were counted, and the number of colony-forming units (CFU) per mL, or in other words, bacteria per mL, was calculated.

Series [7] has as its system human total cytochrome P450 (CYP450). In words: ELISA for total cytochrome P450 in HEPG2 cells. It is filed as in vitro ADME. Particulars: HEPG2, 24 h, concentrations inhibiting S. aureus. The procedure: The effect on CYP450 was tested using the ELISA method on the HEPG2 liver cell line. As mentioned, it has weak or absent expression of the CYP450 superfamily, e.g., CYP3A4, CYP1A2, etc., and that low basal activity makes it a good model for studies of CYP inducers. In addition, these cells have the advantage of immortalization due to their cancerous nature. The standard curves after the two ELISA tests (Figure S7) were prepared as a standard dose–response curve, also called a four-parameter logistic (4-PL) curve.
Human total cytochrome P450 was examined using the Human Cytochrome P450 ELISA Kit (MBS705506, MyBioSource, San Diego, CA, USA) according to the manufacturer’s instructions. HEPG2 cells were seeded at a concentration of 100,000 cells/mL in a 6-well plate, and the overnight culture was treated with selected Hypericum agents. After 24 h of exposure, the protocol was performed according to the kit instructions.
The test principle uses the sandwich quantitative enzyme immunoassay technique. A microplate was pre-coated with an antibody specific for cytochrome P450. Standards and samples were pipetted into the wells, and if cytochrome P450 molecules were present, they were bound by the immobilized antibody. […] The color development was stopped, and its intensity was measured on a microplate reader ELx800 (BioTek Instruments, Inc., Winooski, VT, USA).
In general terms: ELISA stands for enzyme-linked immunosorbent assay.

For series [8], the system named is tumor cell lines. Particulars: ref [29]; cited from earlier work.
Series [9] has as its system Human embryonic kidney-293 (HEK-293). In words: MTT assay for cytotoxicity. It counts as cell-based. Particulars: for IC50: Homo sapiens, HEK293. As for the experimental part:
(§3) The MTT assay was performed according to Annex C, ISO 10993-5 [56] as in [116]. The panel of non-tumorigenic cell lines consisted of one murine (CCL-1 fibroblasts, which are recommended as a standard for cytotoxicity evaluation in Annex C of ISO 10993-5 [56]) and four human cell lines—HaCaT (immortalized epidermal keratinocytes), HGF (gingival fibroblasts), HEK-293 (embryonic cells from kidney epithelium), and HEPG2 (hepatoblastoma). Although technically a cancer cell line, HEPG2 is non-tumorigenic and retains many hepatocyte-related features in its proteome and a high degree of morphological and functional differentiation, also being a stage one hepatoblastoma.
(§4) CCL-1 was purchased from ATCC and HaCaT and HGF were bought from CLS Cell Lines Service (GmbH, Eppelheim, Germany). HEK-293 and HEPG2 were obtained from DSMZ. The cell culture medium for HaCaT and HEPG2 was Dulbecco’s Modified Eagle Medium (DMEM) with 4.5 g/L glucose (DMEM-HA). For HGF it was DMEM/F-12 (DMEM-12-A, a 1:1 mixture of DMEM and Ham’s F-12 medium). The cell medium for CCL-1 and HEK-293 was Eagle’s Minimum Essential Medium (MEM) (MEM-A). Ten percent heat-inactivated fetal bovine serum (FBS) was added to all media but to the one for the CCL-1 cells, to which 10% heat-inactivated horse serum was added. All media were supplemented with 2 mM L-glutamine and Penicillin/Streptomycin (Pen/Strep, 100×). The cell culture media, sera, and additives were from Capricorn Scientific (Düsseldorf, Germany).
(§5) GraphPad Prism software version 9 (GraphPad Software Inc., San Diego, CA, USA) was used to calculate the IC50 values from the MTT assays as in [116], as well as the MTC values, and the ELISA standard curves. The MTC values are, according to ISO 10993-5, the maximum concentration at which at least 70% of the cells are viable (nonlin fit, range).
A general note: Formazan colour is commonly taken as a measure of viable cells.

Series [10] relates to Human gingival fibroblasts (HGF). The series is described as follows: MTT assay for cytotoxicity. It is filed as cell-based. Particulars: for IC50: Homo sapiens, Fibroblast. As for the experimental part:
as §3, §4, §5

[11] abbreviates: bactericidal if ≤ 4, bacteriostatic if > 4.
Setting [12] is: at least 70% of cells viable, ISO 10993-5.

Molecules are shown by their SMILES. pIC50: −log10 of the molar value. Values joined by “and” are separate entries in the source; they are usually repeats but may differ in a detail not shown here. Identical values can stand only once.

On to `CC(C)=CCCC1(C)C(CC=C(C)C)CC2C(=O)C1(C(=O)C(C)C)C(=O)C(CC=C(C)C)=C2O` (centres unmarked) [Olympiforin B], for which, in series [1], the “Nuclear and DNA condensation (signs of apoptosis)” value was “did not cause any nuclear and DNA condensation”. In addition, the MBC is 55 µg/mL and 98 µM in series [2] (Enterococcus faecalis); 60 µg/mL and 107 µM in series [3] (Streptococcus pyogenes); 19 µg/mL and 34 µM in series [4] (Staphylococcus aureus, read-out: Minimal bactericidal concentration (MBC), Staphylococcus aureus); 6.25 µg/mL and 11.1 µM in [5] (Streptococcus mutans, read-out: MBC for S. mutans). Also, the “MBC/MIC ratio, E. faecalis” value in [2] (setting [11]) is recorded as 14. In [3] (setting [11]), the “MBC/MIC ratio, S. pyogenes” value was determined as 15. Also, the “MBC/MIC ratio, S. aureus” value in [4] (setting [11]) is recorded as 19. Also, the MIC in series [5] (Streptococcus mutans, read-out: MIC for S. mutans) was 3 µg/mL and 5.57 µM. Besides, the “MBC/MIC ratio, Streptococcus mutans” value in series [5] (setting [11]) came out at 2. The “Bacteria remaining in time kill assay” value in series [6] (1/2 × MBC, 24 h) is 302,000 CFU/mL. For the same molecule, in [6] (MBC concentration, by 24 h), the “Outcome of time kill assay” value was “killed all bacteria”. In addition, the “Induction of total CYP450” value in [7] is reported as “hardly induce”. Further, in series [8], the pIC50 was 5.89. Further, the half-inhibitory concentration (IC50) worked out at 0.67 µg/mL in series [9] (MTT assay), 1.43 µM in [9] (converted to µM), 18 µg/mL in series [10] (MTT assay) and 38.4 µM in series [10] (converted to µM). Moreover, the “Maximum tolerated concentration (MTC), HEK-293” value in [9] (setting [12]) is given as 0.46 µg/mL. The “Maximum tolerated concentration (MTC), HGF” value in [10] (setting [12]) was 16.06 µg/mL.

Broadly, the MIC is the lowest concentration found to suppress growth. As usually defined, the pIC50 is −log10 of the IC50, conventionally taken in molar units. A word on the IC50: it is the midpoint of a concentration-inhibition curve. Low readings indicate greater potency in that assay, high ones weaker potency in that assay.

The record behind these values is article PMC12566971, “Polyprenylated Acylphloroglucinols from Hypericum rochelii and Hypericum olympicum—Cytotoxic Effects on Non-Tumorigenic Cell Lines and Antibacterial Potential” (Pharmaceuticals, 2025).
